The experiment deals with T1, human GOAT (Homo sapiens, UniProt Q96T53).
T1 construct: His; made in house; host or cells: Sf9 insect cells (baculovirus, pAN51 vector); microsomal membrane preparation
T1 sequence (Q96T53 1-435): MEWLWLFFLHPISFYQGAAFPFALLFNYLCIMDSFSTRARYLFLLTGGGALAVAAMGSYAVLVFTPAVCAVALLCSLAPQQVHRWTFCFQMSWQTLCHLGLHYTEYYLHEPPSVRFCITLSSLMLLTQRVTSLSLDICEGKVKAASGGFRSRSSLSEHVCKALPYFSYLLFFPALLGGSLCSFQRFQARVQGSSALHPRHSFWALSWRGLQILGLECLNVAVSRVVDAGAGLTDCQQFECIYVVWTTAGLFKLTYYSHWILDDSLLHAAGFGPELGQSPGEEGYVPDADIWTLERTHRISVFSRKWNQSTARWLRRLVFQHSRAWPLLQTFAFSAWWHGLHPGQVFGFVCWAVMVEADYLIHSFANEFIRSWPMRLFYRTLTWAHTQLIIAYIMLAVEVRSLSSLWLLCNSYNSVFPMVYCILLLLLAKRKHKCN
The experiment in a line: In vitro cell free human GOAT enzymatic assay. In kind it is biochemical. Particulars: GOAT-His/sf9 membrane preparation. The protocol: Human GOAT gene (Accession number: NM_001100916) is subcloned to pAN51 baculoviral expression vector. Baculovirus stock is prepared following the Bac-to-Bac Protocol provided by the vendor, Invitrogen, California, USA. Five mililiters of human GOAT baculoviral stock are added to 500 mL Sf9 cells in HyQ SFX-Insect™ media (HyClone catalog number SH30278.02) at the density of 1 × 10^6 cells per milliliter in a 2 L Erlenmeyer flask. The flask with human GOAT gene infected Sf9 cells is put on a plate shaker at 120 rpm at 28 °C for 48 hours. After 48 hours incubation, cells are centrifuged at 1,000xg for 10 min at 4 °C. The cell pellets are collected and stored at -80 °C in a freezer until ready for further processing.
One gram cell pellets are suspended in 9 mL chilled homogenization buffer (50 mM Tris-HCl, 250 mM sucrose, adjusted to pH 7.5 and sterile filtered through 0.2 µm Millipore filter). The cell suspension is transferred to a Dounce glass homogenizer. Cell pellets are homogenized with 40 strokes on ice. The homogenate is centrifuged at 3,000 rpm in a Beckman swing bucket rotor at 4 °C for 10 min to remove unbroken cells. The supernatant is collected and centrifuged at 40,000 xg for 1 hour at 4 °C. The resulting membrane pellet is suspended in the homogenization buffer using a Dounce glass homogenizer and stored at -20 °C in the freezer for the assay. For long term storage of the human GOAT enzyme membrane preparation, the suspended membrane is stored in a -80 °C freezer.
Prepare test compounds in DMSO to make up a 0.2 mM stock solution. Serially dilute the stock solution in DMSO to obtain a ten-point dilution curve with final compound concentrations ranging from 10 µM to 0.5 nM in a 96-well round-bottom plate. Prepare enzyme and substrate solutions in assay buffer (0.02% TWEEN™-20 in 50 mM Tris, pH 7.5/250 mM sucrose/1 mg/mL BSA/10 mM EDTA). Add diluted compound (1 µL) to each well of row A to N of a corresponding low protein binding 384 well plate. Add human GOAT substrate mix (10 µL), consisting of human desacyl-ghrelin-biotin (CPC Scientific Inc., 6.0 µM final), octanoyl-coenzyme A (CoA) (Sigma, 60 µM final) and an AG specific antibody (WO 2006/091381)(1.0 µg/mL final), to the compounds. Add GOAT-His/sf9 enzyme preparation, that has been prepared in assay buffer (9 µL), to each well of the plate containing substrate and test compounds resulting in a final concentration of 0.01 µg/mL to initiate the reaction. Incubate the mixture for 1 hour at RT on a gently rotating oscillator. Add 4M guanidine hydrochloride (20 µL) to all wells, mix, and incubate for 3 hours to stop the reaction.
Prepare ELISA plates (STREPTAVIDIN SPECTRAPLATE™ 384, Perkin Elmer) by blocking with 2% Heat-Inactivated FBS in PBS (40 µL) (Invitrogen) blocking buffer for 3 hours. Aspirate the blocking buffer from ELISA plate and add blocking buffer (23 µL) to columns 1-24, rows A-N. Reserve rows O and P for the acylghrelin standard curve. Add the reaction mix (2 µL) to the ELISA plates. Prepare a 10 point standard curve (biotin-labeled octanoyl-ghrelin) by serial 2X dilution in blocking buffer containing 0.2M Guanidine hydrochloride starting at 2.5 pM. Incubate the reaction mixture or biotin-labeled AG standard in the ELISA plate overnight at 4 °C. The following day, wash the plate 3× with wash buffer (0.1% TWEEN™-20/PBS, 100 µL per well in each wash cycle). […] Read plates at 450 nm using an ENVISION® Multilabel plate reader. […]

For `Cc1nc(C(F)(F)F)nc(N)c1CCC1CCN(C(=O)[C@H](C)NC(=O)c2ccnn2C)CC1` [Example 2, N-[(1S)-2-[4-[2-[4-Amino-6-methyl-2-(trifluoromethyl)pyrimidin-5-yl]ethyl]-1-piperidyl]-1-methyl-2-oxo-ethyl]-2-methyl-pyrazole-3-carboxamide], the IC20 worked out at 69.5 ± 0.6 nM.

What is called IC20 is the concentration at which the effect reaches the 20% level.

(Values after patent EP3283473B1, “GHRELIN O-ACYL TRANSFERASE INHIBITORS” (Eli Lilly and Company, priority 2015, dated 2016).)
